This series in a line: Percent encapsulation of mRNA in lipid nanoparticles (Quant-iT Ribogreen). The series is classed as physicochemical. The following applies: Table 2; leptin mRNA in LNP with the cationic lipid. The method, then: All equipment and disposable supplies are certified free of RNase activity by the manufacturer or rendered RNase free by use of the RNaseZap reagent (LifeTechnologies). mRNA is encapsulated at a cationic lipid amine to mRNA phosphate (N:P) molar ratio of 4:1. Lipids (cationic lipid, DSPC, cholesterol and lipidated PEG or stealth lipid) are dissolved in ethanol. The molar ratios are 40:10:38:2, respectively. The mixture is sonicated briefly, then gently agitated for 5 minutes and then maintained at 37° C. until use. mRNA is exchanged into citrate buffer pH 5.8-6.0 by use of Amicon Ultra-15 centrifugal concentrators, and the final concentration is adjusted to 0.5 mg/ml and held at 37° C. until use. An equal volume of lipids in ethanol, mRNA in citrate buffer, and citrate buffer alone are drawn into disposable syringes. Tubing leading from syringes containing lipids and mRNA are attached to the T junction, and tubing leading from the syringe containing citrate buffer alone is paired with the tubing exiting the T-junction over a collection vessel containing a stir bar on an active stir plate. Syringes are placed in a syringe pump set to expel contents at a flow rate of 1 ml per minute.
The pump is activated, and the collected mRNA in lipid nanoparticles is transferred to SnakeSkin dialysis tubing (10,000 MWCO, Thermo Scientific). Material is dialyzed against RNAse- and pyrogen-free 1× phosphate buffered saline overnight at 4° C.
Percent encapsulation of mRNA in lipid nanoparticles is determined using the Quant-iT Ribogreen RNA Assay kit (Life Technologies). The LNP-mRNA suspension is assayed in buffer (mRNA outside the particle), and buffer plus Triton X-100 detergent (total mRNA). The difference calculated is the mRNA inside the particle. Prepare a 1000 ng/mL stock from the RNA provided in the kit and use this to generate a standard curve (0 ng/ml, 15.63-1000 ng/ml) in TE and TE+0.75% Triton X-100. Prepare LNP-mRNA samples in TE buffer and TE buffer +0.75% Triton X-100 with appropriate dilution so that reading is in the range of standard curve (400-2,000 fold). In a 384-well plate (Costar non-treated #3573) add 0.04 ml of standard (in duplicate) or sample (in triplicate) per well. Dilute Ribogreen reagent 240-fold in TE buffer and add 0.06 ml per well. Mix contents of wells and measure fluorescence (excitation=480 nm, emission=520 nm). Subtract background values (no RNA) from standard and test sample values and determine the concentrations of RNA in the samples using the standard curves. Determine the percent encapsulation of the sample by dividing the difference in concentrations between sample+triton and sample in buffer alone by the sample+triton concentration.

Structures are written as SMILES.

For `CCCCCCCC(=O)OCCCCCCCCCCC(CCOC(=O)CCCCCC(CCCCCC)CCCCCC)OC(=O)OCCCN(C)C` (stereo not drawn) [Example 64, 3-(((3-(dimethylamino)propoxy)carbonyl)oxy)-13-(octanoyloxy)tridecyl 7-hexyltridecanoate], the “% encapsulation mRNA Leptin” value was 93.0%.

Regarding `CC/C=C\C/C=C\C/C=C\CCCCCCCC(=O)OCC(COC(=O)CCCCCCC/C=C\C/C=C\C/C=C\CC)OC(=O)CCC(CCCCCCCCCCCC)OC(=O)OCCCN(C)C` (stereo not drawn) [Example 82, (9Z,9′Z,12Z,12′Z,15Z,15′Z)-2-((4-(((3-(dimethylamino)propoxy)carbonyl)oxy)hexadecanoyl)oxy)propane-1,3-diyl bis(octadeca-9,12,15-trienoate)], the “% encapsulation mRNA Leptin” value is 81.9%.

In the case of `CCCCCCCC/C=C\CCCCCCCC(=O)OCC(COC(=O)CCCCCCC/C=C\CCCCCCCC)OC(=O)CCC(CCCCCCCCCCCC)OC(=O)OCCCN(C)C` (stereo not drawn) [Example 83, (Z)-2-((4-(((3-(dimethylamino)propoxy)carbonyl)oxy)hexadecanoyl)oxy)propane-1,3-diyl dioleate], the “% encapsulation mRNA Leptin” value amounted to 48.9%.

On to `CCCCCCCCCCCCCC(=O)OCC(COC(=O)CCCCCCCCCCCCC)OC(=O)CCC(CCCCCCCCCCCC)OC(=O)OCCCN(C)CC` (stereo not drawn) [Example 86, 2-((4-(((3-(ethyl(methyl)amino)propoxy)carbonyl)oxy)hexadecanoyl)oxy)propane-1,3-diyl ditetradecanoate], for which the “% encapsulation mRNA Leptin” value came out at 68.5%.

With `CCCCCCCCCCCCC(CCC(=O)OC(COC(=O)CCCCCCCCCCC)COC(=O)CCCCCCCCCCC)OC(=O)OCCCN(C)CC` (stereo not drawn) [Example 89, 2-((4-(((3-(ethyl(methyl)amino)propoxy)carbonyl)oxy)hexadecanoyl)oxy)propane-1,3-diyl didodecanoate], the “% encapsulation mRNA Leptin” value is given as 87.0%.

For `CCCCCCCCCCCCC(CCC(=O)OC(COC(=O)CCCCCCC)COC(=O)CCCCCCC)OC(=O)OCCCN(C)CC` (stereo not drawn) [Example 93, 2-((4-(((3-(ethyl(methyl)amino)propoxy)carbonyl)oxy)hexadecanoyl)oxy)propane-1,3-diyl dioctanoate], the “% encapsulation mRNA Leptin” value was found to be 82.0%.

Turning to `CCCCCCCCCCCCC(OC(=O)OCCCN(CC)CC)C(=O)OC(COC(=O)CCCCCCC)COC(=O)CCCCCCC` (stereo not drawn) [Example 100, 2-((2-(((3-(diethylamino)propoxy)carbonyl)oxy)tetradecanoyl)oxy)propane-1,3-diyl dioctanoate)], the “% encapsulation mRNA Leptin” value was found to be 91.5%.

For `CCCCCCCCCCCCC(CCOC(=O)CCC(OCCCCCCCC)OCCCCCCCC)OC(=O)OCCCN(C)C` (stereo not drawn) [Example 106, 3-(((3-(dimethylamino)propoxy)carbonyl)oxy)pentadecyl 4,4-bis(octyloxy)butanoate], the “% encapsulation mRNA Leptin” value turned out to be 96.3%.

Regarding `CCCCCCCCCCCCC(CCOC(=O)CCCCC(OCCCCCCCC)OCCCCCCCC)OC(=O)OCCCN1CCCCC1` (stereo not drawn) [Example 107, 3-(((3-(piperidin-1-yl)propoxy)carbonyl)oxy)pentadecyl 6,6-bis(octyloxy)hexanoate], the “% encapsulation mRNA Leptin” value was 94.5%.

Turning to `CCCCCCCCCCCCC(CCOC(=O)CCCCC(OCCCCCCCC)OCCCCCCCC)OC(=O)OCCCN1CCNCC1` (stereo not drawn) [Example 108, 3-(((3-(piperazin-1-yl)propoxy)carbonyl)oxy)pentadecyl 6,6-bis(octyloxy)hexanoate], the “% encapsulation mRNA Leptin” value worked out at 94.6%.

Take `CCCCCCCCCCCCC(CCOC(=O)CCCCC(OCCCCCCCC)OCCCCCCCC)OC(=O)OCCCCN(CC)CC` (stereo not drawn) [Example 109, 3-(((4-(diethylamino)butoxy)carbonyl)oxy)pentadecyl 6,6-bis(octyloxy)hexanoate]: the “% encapsulation mRNA Leptin” value is on record as 80.6%.

On to `CCCCCCCCCCCCC(CCOC(=O)CCCCC(OCCCCCCCC)OCCCCCCCC)OC(=O)OCCCN1CCN(C)CC1` (stereo not drawn) [Example 110, 3-(((3-(4-methylpiperazin-1-yl)propoxy)carbonyl)oxy)pentadecyl 6,6-bis(octyloxy)hexanoate], for which the “% encapsulation mRNA Leptin” value is given as 59.3%.

As for `CCCCCCCCCCCCC(CCOC(=O)CCCCC(OCCCCCCCC)OCCCCCCCC)OC(=O)OCC1CCN(C)CC1` (stereo not drawn) [Example 111, 3-((((1-methylpiperidin-4-yl)methoxy)carbonyl)oxy)pentadecyl 6,6-bis(octyloxy)hexanoate], the “% encapsulation mRNA Leptin” value stood at 74.7%.

On to `CCCCCCCCCCCCC(CCOC(=O)CCCCC(OCCCCCCCC)OCCCCCCCC)OC(=O)OCCCN1CCOCC1` (stereo not drawn) [Example 112, 3-(((3-morpholinopropoxy)carbonyl)oxy) pentadecyl 6,6-bis(octyloxy) hexanoate], for which the “% encapsulation mRNA Leptin” value stood at 32.9%.

In the case of `CCCCCCCCCCCCC(CCOC(=O)CCCCC(OCCCCCCCC)OCCCCCCCC)OC(=O)OCCN(CC)CC` (stereo not drawn) [Example 113, 3-(((2-(diethylamino)ethoxy)carbonyl)oxy)pentadecyl 6,6-bis(octyloxy)hexanoate], the “% encapsulation mRNA Leptin” value amounted to 37.5%.

With `CCCCCCCCCCCCC(CCOC(=O)CCCCC(OCC(CCC)CCC)OCC(CCC)CCC)OC(=O)OCCCN(CC)CC` (stereo not drawn) [Example 114, 3-(((3-(diethylamino)propoxy)carbonyl)oxy)pentadecyl 6,6-bis((2-propylpentyl)oxy)hexanoate], the “% encapsulation mRNA Leptin” value is listed as 98.4%.

For the compound `CCCCCCCCCCCCC(CCOC(=O)CCCCC(OCCC(CC)CC)OCCC(CC)CC)OC(=O)OCCCN(C)C` (stereo not drawn) [Example 116, 3-(((3-(dimethylamino)propoxy)carbonyl)oxy)pentadecyl 6,6-bis((3-ethylpentyl)oxy)hexanoate], the “% encapsulation mRNA Leptin” value came to 93.3%.

Take `CCCCCCCCCCCCC(CCOC(=O)CCCCC(OCCCCCCCC)OCCCCCCCC)OC(=O)[C@H]1CCCN1C` (stereo partly drawn) [Example 117, (2R)-1-((6,6-bis(octyloxy)hexanoyl)oxy) pentadecan-3-yl 1-methyl pyrrolidine-2-carboxylate]: the “% encapsulation mRNA Leptin” value turned out to be 5.0%.

Turning to `CCCCCCCCCCCCC(CCOC(=O)CCCCC(OCCCCCCCC)OCCCCCCCC)OC(=O)[C@@H]1CCCN1C` (stereo partly drawn) [Example 118, (2S)-1-((6,6-bis(octyloxy)hexanoyl)oxy)pentadecan-3-yl 1-methylpyrrolidine-2-carboxylate], the “% encapsulation mRNA Leptin” value worked out at 12.8%.

Regarding `CCCCCCCCCCCCC(CCOC(=O)CCCCC(OCCCCCCCC)OCCCCCCCC)OC(=O)[C@H]1CCCN1` (stereo partly drawn) [Example 119, (2R)-1-((6,6-bis(octyloxy)hexanoyl)oxy)pentadecan-3-yl pyrrolidine-2-carboxylate], the “% encapsulation mRNA Leptin” value is recorded as 95.7%.

For the compound `CCCCCCCCCCCCC(CCOC(=O)CCCCC(OCCCCCCCC)OCCCCCCCC)OC(=O)C1(C)CCN(C)C1` (stereo not drawn) [Example 120, 1-((6,6-bis(octyloxy)hexanoyl)oxy) pentadecan-3-yl 1,3-dimethylpyrrolidine-3-carboxylate], the “% encapsulation mRNA Leptin” value is 96.1%.

On to `CCCCCCCCCCCCC(CCOC(=O)CCCCC(OCCCCCCCC)OCCCCCCCC)OC(=O)CCC1CCN(C)CC1` (stereo not drawn) [Example 121, 3-((3-(1-methylpiperidin-4-yl)propanoyl)oxy)pentadecyl 6,6-bis(octyloxy)hexanoate], for which the “% encapsulation mRNA Leptin” value stood at 71.2%.

As for `CCCCCCCCCCCCC(CCOC(=O)CCCCC(OCCCCCCCC)OCCCCCCCC)OC(=O)C1(C)CCN(C)CC1` (stereo not drawn) [Example 122, 1-((6,6-bis(octyloxy)hexanoyl)oxy) pentadecan-3-yl 1,4-dimethylpiperidine-4-carboxylate], the “% encapsulation mRNA Leptin” value was determined as 97.5%.

With `CCCCCCCCCCCCC(CCOC(=O)CCCCC(OCCCCCCCC)OCCCCCCCC)OC(=O)CCCCN(CC)CC` (stereo not drawn) [Example 123, 3-((5-(diethylamino)pentanoyl)oxy)pentadecyl 6,6-bis(octyloxy)hexanoate], the “% encapsulation mRNA Leptin” value was found to be 83.8%.

For the compound `CCCCCCCCCCCCC(CCOC(=O)CCCCC1OC(CCCCCCC)CC(CCCCCCC)O1)OC(=O)OCCCN(CC)CC` (stereo not drawn) [Example 124, 3-(((3-(diethylamino)propoxy)carbonyl)oxy)pentadecyl 5-(4,6-diheptyl-1,3-dioxan-2-yl)pentanoate], the “% encapsulation mRNA Leptin” value was 98.0%.

Take `CCCCCCCCOC(CCCCC(=O)OCCC(CCCCCCCC)OC(=O)OCCCN(CC)CC)OCCCCCCCC` (stereo not drawn) [Example 125, 3-(((3-(diethylamino)propoxy)carbonyl)oxy)undecyl 6,6-bis(octyloxy)hexanoate]: the “% encapsulation mRNA Leptin” value worked out at 95.1%.

As to `CCCCCCCCCCC(CCOC(=O)CCCCC(OCCCCCCCC)OCCCCCCCC)OC(=O)OCCCN(CC)CC` (stereo not drawn) [Example 126, 3-(((3-(diethylamino)propoxy)carbonyl)oxy)tridecyl 6,6-bis(octyloxy)hexanoate], the “% encapsulation mRNA Leptin” value stood at 97.4%.

The values are drawn from patent US11013696B2, “Lipids and lipid compositions for the delivery of active agents” (Novartis AG, priority 2013, dated 2021).
